Experimental data reported in patent publication JP2015020973A, “クロマン化合物塩酸塩の結晶形態及びその製造法” (Nissan Chemical Corp, priority 2013, dated 2015).

Assays:
[1] = Test Example 1: dissolution test, JP Pharmacopoeia dissolution test 1st fluid (pH 1.2), paddle method; format: physicochemical; settings: dissolution test 1st fluid pH 1.2, 37 °C, paddle 100 rpm, at 60 min
[2] = Test Example 2: dissolution test, JP Pharmacopoeia dissolution test 2nd fluid (pH 6.8), paddle method; format: physicochemical; settings: dissolution test 2nd fluid pH 6.8, 37 °C, paddle 100 rpm, after 120 min

Structure (SMILES) | dissolution rate [1] [%] | dissolution rate [2] [%]
COc1cc2c(cc1NS(C)(=O)=O)OC(C)(C)[C@H](O)[C@H]2NCCc1ccccc1 (relative stereo) [フリー体, N−{(3R*,4S*)−3−ヒドロキシ−6−メトキシ−2,2−ジメチル−4−(フェネチルアミノ)クロマン−7−イル}メタンスルホンアミド] | 90 | ~65
COc1cc2c(cc1NS(C)(=O)=O)OC(C)(C)[C@H](O)[C@H]2NCCc1ccccc1.Cl (relative stereo) [A形結晶, N−{(3R*,4S*)−3−ヒドロキシ−6−メトキシ−2,2−ジメチル−4−(フェネチルアミノ)クロマン−7−イル}メタンスルホンアミド塩酸塩] | 90 | ~80
